In ChEMBL document CHEMBL3885881, “DrugMatrix”:

Organism: Rattus norvegicus
Experiment: DrugMatrix - Regimen: Daily Repeat
Format: toxicity, organism-based, Sprague-Dawley
Parameters: regimen Daily Repeat, gender Male, age 6-8 weeks
Conditions: in vivo, po, route oral GAVAGE, vehicle 100 % WATER; for ABSOLUTE BASOPHIL / ABSOLUTE EOSINOPHIL / ABSOLUTE LYMPHOCYTE / ABSOLUTE MONOCYTE / ABSOLUTE SEGMENTED NEUTROPHIL / BASOPHIL / EOSINOPHIL / ERYTHROCYTE COUNT / HEMATOCRIT / HEMOGLOBIN / LEUKOCYTE COUNT / LYMPHOCYTE / MEAN CORPUSCULAR HEMOGLOBIN / MEAN CORPUSCULAR HEMOGLOBIN CONCENTRATION / MEAN CORPUSCULAR VOLUME / MONOCYTE / NEUTROPHIL / NUCLEATED RED BLOOD CELLS / PLATELET COUNT: tissue Blood; for ALANINE AMINOTRANSFERASE / ALBUMIN / ALKALINE PHOSPHATASE / ASPARTATE AMINOTRANSFERASE / BLOOD UREA NITROGEN / CARBON DIOXIDE / CHLORIDE / CHOLESTEROL / CREATINE PHOSPHOKINASE / CREATININE / GLUCOSE / LACTATE DEHYDROGENASE / LIPASE / PHOSPHORUS / POTASSIUM / SODIUM / TOTAL BILIRUBIN / TOTAL PROTEIN / URIC ACID: tissue Plasma
[1] = 0 mg/kg, 72 h, dose level Control, time 3 day
[2] = 0 mg/kg, 120 h, dose level Control, time 5 day
[3] = 27 mg/kg, 72 h, dose level Low, time 3 day

CNNCc1ccc(C(=O)NC(C)C)cc1 [PROCARBAZINE]
ABSOLUTE BASOPHIL [1]: 0 CELLS/uL | ABSOLUTE EOSINOPHIL [1]: 0 CELLS/uL | ABSOLUTE LYMPHOCYTE [1]: 7802.17 CELLS/uL | ABSOLUTE MONOCYTE [1]: 13.5 CELLS/uL | ABSOLUTE SEGMENTED NEUTROPHIL [1]: 617.67 CELLS/uL | BASOPHIL [1]: 0% | EOSINOPHIL [1]: 0% | ERYTHROCYTE COUNT [1]: 5.35 x10E6/uL | HEMATOCRIT [1]: 33.02% | HEMOGLOBIN [1]: 12.88 G/DL | LEUKOCYTE COUNT [1]: 8.43 x10E3/uL | LYMPHOCYTE [1]: 92.67% | MEAN CORPUSCULAR HEMOGLOBIN [1]: 24.12 pg | MEAN CORPUSCULAR HEMOGLOBIN CONCENTRATION [1]: 39.03 G/DL | MEAN CORPUSCULAR VOLUME [1]: 61.8 fL | MONOCYTE [1]: 0.17% | NEUTROPHIL [1]: 7.17% | NUCLEATED RED BLOOD CELLS [1]: 0 /100WBC | PLATELET COUNT [1]: 1124.83 x10E3/uL | ALANINE AMINOTRANSFERASE [1]: 54.17 u/L | ALBUMIN [1]: 4.07 G/DL | ALKALINE PHOSPHATASE [1]: 383.83 u/L | ASPARTATE AMINOTRANSFERASE [1]: 82.17 u/L | BLOOD UREA NITROGEN [1]: 13.67 mg/dL | CARBON DIOXIDE [1]: 31 mmol/L | CHLORIDE [1]: 100.83 MEQ/L | CHOLESTEROL [1]: 65.17 mg/dL | CREATINE PHOSPHOKINASE [1]: 228.33 u/L | CREATININE [1]: 0.12 mg/dL | GLUCOSE [1]: 148 mg/dL | LACTATE DEHYDROGENASE [1]: 97.83 u/L | LIPASE [1]: 9.17 u/L | PHOSPHORUS [1]: 9.75 mg/dL | POTASSIUM [1]: 5.85 MEQ/L | SODIUM [1]: 147.02 MEQ/L | TOTAL BILIRUBIN [1]: 0.18 mg/dL | TOTAL PROTEIN [1]: 6.1 G/DL | URIC ACID [1]: 0.5 mg/dL | ABSOLUTE BASOPHIL [2]: 0 CELLS/uL | ABSOLUTE EOSINOPHIL [2]: 0 CELLS/uL | ABSOLUTE LYMPHOCYTE [2]: 10538 CELLS/uL | ABSOLUTE MONOCYTE [2]: 15.83 CELLS/uL | ABSOLUTE SEGMENTED NEUTROPHIL [2]: 762.83 CELLS/uL | BASOPHIL [2]: 0% | EOSINOPHIL [2]: 0% | ERYTHROCYTE COUNT [2]: 5.49 x10E6/uL | HEMATOCRIT [2]: 34.63% | HEMOGLOBIN [2]: 13.72 G/DL | LEUKOCYTE COUNT [2]: 11.32 x10E3/uL | LYMPHOCYTE [2]: 92.67% | MEAN CORPUSCULAR HEMOGLOBIN [2]: 24.97 pg | MEAN CORPUSCULAR HEMOGLOBIN CONCENTRATION [2]: 39.57 G/DL | MEAN CORPUSCULAR VOLUME [2]: 63.05 fL | MONOCYTE [2]: 0.17% | NEUTROPHIL [2]: 7.17% | NUCLEATED RED BLOOD CELLS [2]: 0.17 /100WBC | PLATELET COUNT [2]: 802 x10E3/uL | ALANINE AMINOTRANSFERASE [2]: 50.5 u/L | ALBUMIN [2]: 4.07 G/DL | ALKALINE PHOSPHATASE [2]: 336.83 u/L | ASPARTATE AMINOTRANSFERASE [2]: 81 u/L | BLOOD UREA NITROGEN [2]: 14.17 mg/dL | CARBON DIOXIDE [2]: 32 mmol/L | CHLORIDE [2]: 98.33 MEQ/L | CHOLESTEROL [2]: 69.17 mg/dL | CREATINE PHOSPHOKINASE [2]: 253.33 u/L | CREATININE [2]: 0.13 mg/dL | GLUCOSE [2]: 153.67 mg/dL | LACTATE DEHYDROGENASE [2]: 157 u/L | LIPASE [2]: 9 u/L | PHOSPHORUS [2]: 10.78 mg/dL | POTASSIUM [2]: 6.11 MEQ/L | SODIUM [2]: 144.57 MEQ/L | TOTAL BILIRUBIN [2]: 0.15 mg/dL | TOTAL PROTEIN [2]: 6.05 G/DL | URIC ACID [2]: 0.73 mg/dL | ABSOLUTE BASOPHIL [3]: 0 CELLS/uL | ABSOLUTE EOSINOPHIL [3]: 0 CELLS/uL | ABSOLUTE LYMPHOCYTE [3]: 5898 CELLS/uL | ABSOLUTE MONOCYTE [3]: 47.67 CELLS/uL | ABSOLUTE SEGMENTED NEUTROPHIL [3]: 121 CELLS/uL | BASOPHIL [3]: 0% | EOSINOPHIL [3]: 0% | ERYTHROCYTE COUNT [3]: 5.61 x10E6/uL | HEMATOCRIT [3]: 35.4% | HEMOGLOBIN [3]: 13.53 G/DL | LEUKOCYTE COUNT [3]: 6.07 x10E3/uL | LYMPHOCYTE [3]: 97% | MEAN CORPUSCULAR HEMOGLOBIN [3]: 24.13 pg | MEAN CORPUSCULAR HEMOGLOBIN CONCENTRATION [3]: 38.2 G/DL | MEAN CORPUSCULAR VOLUME [3]: 63.1 fL | MONOCYTE [3]: 1% | NEUTROPHIL [3]: 2% | NUCLEATED RED BLOOD CELLS [3]: 0 /100WBC | PLATELET COUNT [3]: 1005 x10E3/uL | ALANINE AMINOTRANSFERASE [3]: 73.33 u/L | ALBUMIN [3]: 4.33 G/DL | ALKALINE PHOSPHATASE [3]: 429.33 u/L | ASPARTATE AMINOTRANSFERASE [3]: 103.33 u/L | BLOOD UREA NITROGEN [3]: 13.67 mg/dL | CARBON DIOXIDE [3]: 31.67 mmol/L | CHLORIDE [3]: 97.5 MEQ/L | CHOLESTEROL [3]: 76.33 mg/dL | CREATINE PHOSPHOKINASE [3]: 504 u/L | CREATININE [3]: 0.1 mg/dL | GLUCOSE [3]: 139.67 mg/dL | LACTATE DEHYDROGENASE [3]: 137.67 u/L | LIPASE [3]: 11.67 u/L | PHOSPHORUS [3]: 9.73 mg/dL | POTASSIUM [3]: 5.46 MEQ/L | SODIUM [3]: 144.3 MEQ/L | TOTAL BILIRUBIN [3]: 0.13 mg/dL | TOTAL PROTEIN [3]: 6.27 G/DL | URIC ACID [3]: 0.57 mg/dL
